Experimental data: patent US7803766B2, “Gastrin compositions and formulations, and methods of use and preparation” (Warath Pharmaceuticals, Inc, priority 2002, dated 2010)
Where a SMILES comes first, the peptide text is derived from it. [ ]: non-standard residue; d: D form. pGlu = O=C1CC[C@@H](C(=O)O)N1

Key:
[1] = cynomolgus monkey, in vivo
Method: Male animals were used in the example. Each animal received gastrin by intravenous administration (3 μg/kg, 10 μg/kg and 30 μg/kg). The dosing solutions for intravenous injection were administered as a single bolus dose via the saphenous vein at a dose volume of 1 mL/kg. A 0.2 mL saline flush was administered following dosing in order to ensure administration of the complete dose volume. The actual volume administered to each animal was based on the animal's most recent body weight.
Serial blood samples (approximately 0.5 ml per time point) were collected via the brachial or femoral vein at the following time points: 0 (pre-dose), 1, 3, 5, 10, 15, 30 minutes, 1, 2, and 4 hours post dose.
Each sample was collected into a tube containing EDTA and kept on wet ice pending centrifugation. The samples were centrifuged under refrigeration for a minimum of 10 minutes at 1,500 g (RCF) and the resultant plasma was transferred into duplicate tubes and placed on dry ice. All samples were stored frozen for PK analysis as described below.
Gastrin in plasma samples was measured with a well established competitive radioimmunoassay for the quantitative determination of gastrin (Russell et al., Postgraduate Medical Journal 52:645, 1976). […] The antigen was labeled with ^125I and the presence of the antigen:antibody reactions were detected using a gamma counter. […]

[2] = tested on: NOD mice with recent onset diabetes; assay: Modified and unmodified gastrin in combination with GLP-1 in preventing diabetes progression in NOD mice with recent onset diabetes; type: in vivo; settings: 3 μg/kg/day gastrin equivalent with GLP-1 100 μg/kg/day i.p. daily for 14 days, compared to GLP-1 with native gastrin (Compound B)
Text: In this example, the effect of treatment by a combination of GLP-1 and unmodified gastrin and GLP-1 and modified gastrin compounds/conjugates were examined in NOD mice with recent onset diabetes, to determine whether administration of both GLP-1 and gastrin would prevent severe hyperglycemia as well as increase pancreatic insulin content in NOD mice with recent-onset diabetes. The GLP-1 used was GLP-1 which is the biologically active fragment of human/mouse GLP-1 (having residues at positions 7-36 compared to the precursor from which the fragment is processed; obtained from Bachem H6795). […]
Non-obese diabetic (NOD) female mice, ages 12-14 weeks, were monitored for development of onset of diabetes (fasting blood glucose >8.0 to 15 mmol/l), and within 48 hours after onset of symptoms, four groups of mice were each treated as follows: one group was treated with vehicle only, and the other group was administered 100 μg/kg/day of GLP-1, and the remaining groups were treated with combination of GLP-1 (100 μg/kg/day) and gastrin compound (3 μg/kg/day gastrin equivalent), each treatment administered via the intraperitoneal route daily.
Therapy was administered for 14 days. Animals were monitored weekly for fasting blood glucose (FBG) levels. FBG levels were measured at about 12 hours after food had been withdrawn, and 24 hours after the last peptide or vehicle injection. […]

[3] = in vivo; cited from earlier work

In the case of `CC(C)C[C@H](NC(=O)[C@H](Cc1c[nH]c2ccccc12)NC(=O)CNC(=O)[C@H](Cc1ccc(O)cc1)NC(=O)[C@H](C)NC(=O)[C@H](CCC(=O)O)NC(=O)[C@H](CCC(=O)O)NC(=O)[C@H](CCC(=O)O)NC(=O)[C@H](CCC(=O)O)NC(=O)[C@H](CCC(=O)O)NC(=O)[C@H](CC(C)C)NC(=O)[C@H](Cc1c[nH]c2ccccc12)NC(=O)[C@@H]1CCCN1C(=O)CNC(=O)[C@@H]1CCC(=O)N1)C(=O)N[C@@H](CC(=O)O)C(=O)N[C@@H](Cc1ccccc1)C(N)=O` [Compound B] ([pGlu]GPWLEEEEEAYGWLDF-NH2), the “clearance from the bloodstream” value [1] is reported as “rapidly cleared”.
In the case of “Compound E: N-terminal Cys, gastrin residues 2-17 of SEQ ID NO: 4, no linker (GPWLEEEEEAYGWLDF; N-terminal Cys)”, the “reduction of blood glucose levels” value [2] is reported as “more effecting in reducing blood glucose levels”.
For “Gastrin-17: Native peptide hormone gastrin, 17-residue form (little gastrin or small gastrin)”, the circulating half-life [3] is listed as 5 to 9 min.
